Experimental findings from patent US9902702B2, “Spirocycloheptanes as inhibitors of rock” (BRISTOL-MYERS SQUIBB COMPANY, priority 2014, dated 2018) are described below.

Each structure is given as a SMILES string. Where a name gives a salt, the structure may show the parent alone.

A word on the IC50: it is the concentration that gives 50% inhibition.

The test deals with ROCK2 (Homo sapiens, UniProt O75116). The test can be described thus: ROCK assay: phosphorylation of FITC peptide substrate, LABCHIP 3000 mobility shift. It is filed as biochemical. The following applies: 5 μM ATP, 1.5 μM peptide substrate; read-out: ROCK2 Activity (ROCK IC50 range). The procedure, abridged:
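Rho kinase variant phosphorylates 1.5 μM FITC-AHA-AKRRRLSSLRA-OH with 5 μM ATP in 20 mM HEPES pH 7.5, 20 mM MgCl2, 0.015% Brij-35, 4 mM DTT, DMSO <2%. EDTA stops the reaction, and phospho and non-phospho peptides are resolved by LabChip 3000 mobility shift. IC50 from dose-response curve fit.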

Chain of ROCK2 (O75116 whole entry, species assumed): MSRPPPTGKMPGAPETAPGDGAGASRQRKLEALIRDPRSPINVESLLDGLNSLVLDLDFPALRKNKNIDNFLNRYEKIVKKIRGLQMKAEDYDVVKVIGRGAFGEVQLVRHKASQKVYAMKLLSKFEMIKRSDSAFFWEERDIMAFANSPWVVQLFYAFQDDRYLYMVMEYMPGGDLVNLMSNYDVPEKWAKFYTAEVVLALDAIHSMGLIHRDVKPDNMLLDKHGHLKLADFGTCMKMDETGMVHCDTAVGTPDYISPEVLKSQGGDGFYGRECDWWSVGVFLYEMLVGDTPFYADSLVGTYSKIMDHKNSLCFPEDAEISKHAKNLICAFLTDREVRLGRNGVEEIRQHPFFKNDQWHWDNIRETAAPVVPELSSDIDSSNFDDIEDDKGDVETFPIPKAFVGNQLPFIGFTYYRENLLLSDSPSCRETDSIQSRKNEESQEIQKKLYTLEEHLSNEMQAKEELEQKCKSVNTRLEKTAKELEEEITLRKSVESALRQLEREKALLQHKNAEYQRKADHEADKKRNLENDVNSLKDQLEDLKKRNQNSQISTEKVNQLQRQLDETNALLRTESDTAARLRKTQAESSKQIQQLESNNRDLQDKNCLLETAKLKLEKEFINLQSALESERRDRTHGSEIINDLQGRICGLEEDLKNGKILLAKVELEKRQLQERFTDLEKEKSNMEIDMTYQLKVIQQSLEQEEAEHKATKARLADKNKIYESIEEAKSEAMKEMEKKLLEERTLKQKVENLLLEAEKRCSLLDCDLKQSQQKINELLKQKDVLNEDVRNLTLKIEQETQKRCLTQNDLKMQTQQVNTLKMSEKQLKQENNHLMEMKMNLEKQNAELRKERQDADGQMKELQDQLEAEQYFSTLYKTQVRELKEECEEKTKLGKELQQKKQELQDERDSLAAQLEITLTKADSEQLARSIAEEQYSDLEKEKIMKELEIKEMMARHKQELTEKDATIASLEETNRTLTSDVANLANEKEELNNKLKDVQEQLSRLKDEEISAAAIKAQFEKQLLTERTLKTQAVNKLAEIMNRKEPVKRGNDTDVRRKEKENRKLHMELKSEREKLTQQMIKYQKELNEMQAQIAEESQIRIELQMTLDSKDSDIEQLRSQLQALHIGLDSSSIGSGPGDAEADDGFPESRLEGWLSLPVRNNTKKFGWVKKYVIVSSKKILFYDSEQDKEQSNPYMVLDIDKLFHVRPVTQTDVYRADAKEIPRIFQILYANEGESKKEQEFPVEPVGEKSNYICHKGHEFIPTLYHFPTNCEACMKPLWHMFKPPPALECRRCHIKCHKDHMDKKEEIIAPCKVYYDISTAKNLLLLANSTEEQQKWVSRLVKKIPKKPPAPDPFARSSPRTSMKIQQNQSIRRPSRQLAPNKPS

In the case of `[H][C@]1(c2n[nH]c(=O)c3ccccc32)C[C@]2(C[C@@H](NC(=O)c3ccc4c(c3)ncn4C)C2)C1` (stereo partly drawn) [Example 317, 1-methyl-N-((aR)-6-(4-oxo-3,4-dihydrophthalazin-1-yl)spiro[3.3]heptan-2-yl)-1H-benzo[d] imidazole-5-carboxamide], the IC50 was in the range of 5.1 to 15 nM.

For `Cc1ccc(-c2ncc3c(n2)CN(C(=O)NC2CC4(C2)CC(c2n[nH]c(=O)c5ccccc25)C4)C3)cc1` [Example 262, N-((aR)-6-(4-oxo-3,4-dihydrophthalazin-1-yl)spiro[3.3]heptan-2-yl)-2-(p-tolyl)-5H-pyrrolo[3,4-d]pyrimidine-6(7H)-carboxamide], the IC50 was 100 to 2100 nM.

In the case of `Cc1nc(N2CCC(F)C2)sc1C(=O)NC1CC2(C1)CC(c1n[nH]c(=O)c3ccccc13)C2` [Example 37, 2-[(3R)-3-fluoropyrrolidin-1-yl]-4-methyl-N-[(aR)-6-(4-oxo-3,4-dihydrophthalazin-1-yl)spiro[3.3]heptan-2-yl]-1,3-thiazole-5-carboxamide], the IC50 was 5.1 to 15 nM.

Take `O=C(NC1CC2(C1)CC(c1n[nH]c(=O)c3ccccc13)C2)c1cnn2ncccc12` [Example 96, N-((aR)-6-(4-oxo-3,4-dihydrophthalazin-1-yl)spiro[3.3]heptan-2-yl)pyrazolo[1,5-b]pyridazine-3-carboxamide]: the IC50 is 15.1 to 100 nM.

Consider `O=C(NC1CC2(C1)CC(c1n[nH]c(=O)c3ccccc13)C2)c1ccnn1CC(F)F` [Example 100, 1-(2,2-difluoroethyl)-N-((aR)-6-(4-oxo-3,4-dihydrophthalazin-1-yl)spiro[3.3]heptan-2-yl)-1H-pyrazole-5-carboxamide], for which the IC50 lay in the range of 100 to 2100 nM.

`[H][C@]1(c2n[nH]c(=O)c3ccccc32)C[C@]2(C[C@@H](NC(=O)c3cnc4cc(F)ccn34)C2)C1` (stereo partly drawn) [Example 387, 7-fluoro-N-((aR)-6-(4-oxo-3,4-dihydrophthalazin-1-yl)spiro[3.3]heptan-2-yl)imidazo[1,2-a]pyridine-3-carboxamide]: the half-inhibitory concentration (IC50) was 2.01 to 5 nM.

In the case of `COc1cccc(-n2cc(C(=O)NC3CC4(C3)CC(c3n[nH]c(=O)c5ccccc35)C4)cn2)c1` [Example 108, 1-(3-methoxyphenyl)-N-((aR)-6-(4-oxo-3,4-dihydrophthalazin-1-yl)spiro[3.3]heptan-2-yl)-1H-pyrazole-4-carboxamide], the half-maximal inhibitory concentration (IC50) fell in the range of 2.01 to 5 nM.

Regarding `[H][C@]1(c2n[nH]c(=O)c3ccccc32)C[C@@]2(C[C@H](NC(=O)c3cc4cc(OC)ccc4n3C)C2)C1` (stereo partly drawn) [Example 293, 5-methoxy-1-methyl-N-((aR)-6-(4-oxo-3,4-dihydrophthalazin-1-yl)spiro[3.3]heptan-2-yl)-1H-indole-2-carboxamide], the IC50 lay within 15.1 to 100 nM.

As to `O=C(N[C@H]1CC2(C1)C[C@H](c1n[nH]c(=O)c3ccccc31)C2)c1cnn2cc(-n3cccn3)ccc12` (stereo partly drawn) [Example 177, N-((αR)-6-(4-oxo-3,4-dihydrophthalazin-1-yl)spiro[3.3]heptan-2-yl)-6-(1H-pyrazol-1-yl)pyrazolo[1,5-α]pyridine-3-carboxamide], the IC50 was 0.2 to 2 nM.

For the molecule `CN(C)Cc1ccc2c(C(=O)NC3CC4(C3)CC(c3n[nH]c(=O)c5ccccc35)C4)cnn2c1` [Example 203, 6-((dimethylamino)methyl)-N-((aR)-6-(4-oxo-3,4-dihydrophthalazin-1-yl)spiro[3.3]heptan-2-yl)pyrazolo[1,5-a]pyridine-3-carboxamide], the IC50 fell in the range of 5.1 to 15 nM.

Turning to `[H][C@]1(c2n[nH]c(=O)c3ccccc32)C[C@]2(C[C@@H](NC(=O)c3[nH]c4c(OC)cccc4c3C)C2)C1` (stereo partly drawn) [Example 372, 7-methoxy-3-methyl-N-((aR)-6-(4-oxo-3,4-dihydrophthalazin-1-yl)spiro[3.3]heptan-2-yl)-1H-indole-2-carboxamide], the IC50 lay in the range of 15.1 to 100 nM.

Take `O=C(NC1CC2(C1)CC(c1n[nH]c(=O)c3ccccc13)C2)c1cnn2cc(OCCOCC(F)(F)F)ccc12` (stereo not drawn) [Example 139, N-((αR)-6-(4-oxo-3,4-dihydrophthalazin-1-yl)spiro[3.3]heptan-2-yl)-6-(2-(2,2,2-trifluoroethoxy)ethoxy)pyrazolo[1,5-α]pyridine-3-carboxamide]: the IC50 is 0.2 to 2 nM.

Regarding `[H][C@]1(c2n[nH]c(=O)c3ccccc32)C[C@]2(C[C@@H](NC(=O)c3ccc4cnn(C)c4c3)C2)C1` (stereo partly drawn) [Example 366, 1-methyl-N-((aR)-6-(4-oxo-3,4-dihydrophthalazin-1-yl)spiro[3.3]heptan-2-yl)-1H-indazole-6-carboxamide], the IC50 fell in the range of 5.1 to 15 nM.

Turning to `Cc1cc(NC(=O)C2CC3(C2)CC(c2n[nH]c(=O)c4ccccc24)C3)no1` (centres unmarked) [Example 49, N-(5-methyl-1,2-oxazol-3-yl)-6-(4-oxo-3,4-dihydrophthalazin-1-yl)spiro[3.3]heptane-2-carboxamide], the 50% inhibitory concentration (IC50) is 100 to 2100 nM.

As for `O=C(Nc1ccc(-c2cnn(C3CC3)c2)cc1)NC1CC2(C1)CC(c1n[nH]c(=O)c3ccccc13)C2` [Example 230, 1-(4-(1-cyclopropyl-1H-pyrazol-4-yl)phenyl)-3-((aR)-6-(4-oxo-3,4-dihydrophthalazin-1-yl)spiro[3.3]heptan-2-yl)urea], the concentration for half-maximal inhibition (IC50) fell in the range of 15.1 to 100 nM.

Consider `Cc1c(OCc2ccccc2)ccc2c(C(=O)NC3CC4(C3)CC(c3n[nH]c(=O)c5ccccc35)C4)cnn12` (stereo not drawn) [Example 126, 6-(benzyloxy)-7-methyl-N-((αR)-6-(4-oxo-3,4-dihydrophthalazin-1-yl)spiro[3.3]heptan-2-yl)pyrazolo[1,5-α]pyridine-3-carboxamide], for which the IC50 lay within 0.2 to 2 nM.

Take `CC1(C)CN(C(=O)NC2CC3(C2)CC(c2n[nH]c(=O)c4ccccc24)C3)c2ccccc21` (centres unmarked) [Example 255]: the IC50 lay in the range of 5.1 to 15 nM.

Turning to `COc1cccc(-c2ccc3c(C(=O)NC4CC5(C4)CC(c4n[nH]c(=O)c6ccccc46)C5)nn(CC(C)(C)O)c3c2)c1` (centres unmarked) [Example 158, 1-(2-hydroxy-2-methylpropyl)-6-(3-methoxyphenyl)-N-((αR)-6-(4-oxo-3,4-dihydrophthalazin-1-yl)spiro[3.3]heptan-2-yl)-1H-indazole-3-carobxamide], the IC50 was 2.01 to 5 nM.

With `[H][C@]1(c2n[nH]c(=O)c3ccccc32)C[C@]2(C[C@@H](NC(=O)C3=C(OCC)C(=O)N(CC(F)(F)F)C3)C2)C1` (stereo partly drawn) [Example 355, 4-ethoxy-5-oxo-N-((aR)-6-(4-oxo-3,4-dihydrophthalazin-1-yl)spiro[3.3]heptan-2-yl)-1-(2,2,2-trifluoroethyl)-2,5-dihydro-1H-pyrrole-3-carboxamide], the IC50 lay in the range of 15.1 to 100 nM.

On to `Cc1nnn(C)c1-c1ccc2c(C(=O)NC3CC4(C3)CC(c3n[nH]c(=O)c5ccccc35)C4)cnn2c1` (stereo not drawn) [Example 175, 6-(1,4-dimethyl-1H-1,2,3-triazol-5-yl)-N-((αR)-6-(4-oxo-3,4-dihydrophthalazin-1-yl)spiro[3.3]heptan-2-yl)pyrazolo[1,5-α]pyridine-3-carboxamide], for which the 50% inhibitory concentration (IC50) is 15.1 to 100 nM.

As to `CC(C)(C)n1cc(C(=O)NC2CC3(C2)CC(c2n[nH]c(=O)c4ccccc24)C3)cn1` (centres unmarked) [Example 9, 1-tert-butyl-N-[6-(4-oxo-3,4-dihydrophthalazin-1-yl)spiro[3.3]heptan-2-yl]-1H-pyrazole-4-carboxamide], the IC50 fell in the range of 15.1 to 100 nM.

Regarding `COc1ccc2c(C(=O)NC3CC4(C3)CC(c3n[nH]c(=O)c5ccccc35)C4)cnn2c1` [Example 63, 6-methoxy-N-((aR)-6-(4-oxo-3,4-dihydrophthalazin-1-yl)spiro[3.3]heptan-2-yl)pyrazolo[1,5-a]pyridine-3-carboxamide], the 50% inhibitory concentration (IC50) lay within 0.2 to 2 nM.

Regarding `[H][C@]1(c2n[nH]c(=O)c3ccccc32)C[C@]2(C[C@@H](NC(=O)c3ccc(-c4cnn(C)c4)cc3)C2)C1` (stereo partly drawn) [Example 451, 4-(1-methyl-1H-pyrazol-4-yl)-N-((aR)-6-(4-oxo-3,4-dihydrophthalazin-1-yl)spiro[3.3]heptan-2-yl)benzamide], the half-inhibitory concentration (IC50) fell in the range of 5.1 to 15 nM.

With `[H][C@]1(c2n[nH]c(=O)c3ccccc32)C[C@]2(C[C@@H](NC(=O)c3cnc4cc(OC5CCC(F)(F)CC5)ccn34)C2)C1` (stereo partly drawn) [Example 471, 7-((4,4-difluoro-cyclohexyl)oxy)-N-((aR)-6-(4-oxo-3,4-dihydro-phthalazin-1-yl)spiro[3.3]heptan-2-yl)imidazo[1,2-a]pyridine-3-carboxamide, TFA], the IC50 was 2.01 to 5 nM.

On to `[H][C@]1(c2n[nH]c(=O)c3ccccc32)C[C@]2(C[C@@H](NC(=O)c3cc4cccc(Cl)c4n3C)C2)C1` (stereo partly drawn) [Example 301, 7-chloro-1-methyl-N-((aR)-6-(4-oxo-3,4-dihydrophthalazin-1-yl)spiro[3.3]heptan-2-yl)-1H-indole-2-carboxamide], for which the concentration for half-maximal inhibition (IC50) is 2.01 to 5 nM.

On to `CC(C)(O)COc1ccc2c(C(=O)NC3CC4(C3)CC(c3n[nH]c(=O)c5ccccc35)C4)cnn2c1C1CC1` [Example 97, 7-cyclopropyl-6-(2-hydroxy-2-methylpropoxy)-N-((aR)-6-(4-oxo-3,4-dihydrophthalazin-1-yl)spiro[3.3]heptan-2-yl)pyrazolo[1,5-a]pyridine-3-carboxamide], for which the IC50 lay in the range of 0.2 to 2 nM.

On to `O=C(NC1CC2(C1)CC(c1n[nH]c(=O)c3ccccc13)C2)c1cnc(N2CCOCC2)s1` [Example 69, 2-morpholino-N-((aR)-6-(4-oxo-3,4-dihydrophthalazin-1-yl)spiro[3.3]heptan-2-yl)thiazole-5-carboxamide], for which the IC50 lay in the range of 2.01 to 5 nM.

For the molecule `O=C(N[C@H]1CC2(C1)C[C@H](c1n[nH]c(=O)c3ccccc31)C2)c1cnn2cc(OC[C@@H](O)C(F)(F)F)ccc12` (stereo partly drawn) [Example 120, N-((aR)-6-(4-oxo-3,4-dihydrophthalazin-1-yl)spiro[3.3]heptan-2-yl)-6-(3,3,3-trifluoro-2-hydroxypropoxy)pyrazolo[1,5-a]pyridine-3-carboxamide], the 50% inhibitory concentration (IC50) was 0.2 to 2 nM.

`O=C(NC1CC2(C1)CC(c1n[nH]c(=O)c3ccccc13)C2)c1cnn2ccc(OCCO)cc12` [Example 77, 5-(2-hydroxyethoxy)-N-((aR)-6-(4-oxo-3,4-dihydrophthalazin-1-yl)spiro[3.3]heptan-2-yl)pyrazolo[1,5-a]pyridine-3-carboxamide]: the concentration for half-maximal inhibition (IC50) is 15.1 to 100 nM.
